Measurements as given in patent publication US4784958A, “1,4-dihydropyridine derivatives and 1,4-dihydroquinoline derivatives radioactively labelled with ^125 I, their preparation, and their use in testing medicaments” (priority 1983, dated 1988).
Read-outs that look alike come from different tables or passages of the source.

What was measured:
[1] = target: T1, guinea-pig skeletal muscle membranes (1,4-dihydropyridine receptors / calcium channel) (Cavia porcellus, UniProt A0A286X7I0); experiment: Competition radioreceptor assay with the ^125 I-labelled 1,4-dihydropyridine of Example 2; assay type: binding
T1 construct: membrane fractions from guinea-pig brain, cardiac muscle and skeletal muscle; from tissue; host or cells: guinea-pig skeletal muscle membranes
Procedure: In order to separate the free ligand from the bound ligand, 10% (w/v) polyethylene glycol 6000 was added to ice-cold 10 mM TRIS HCl buffer, pH 7.4, followed by 20 mM MgCl2 (3.5 ml), the sample was diluted, suction filtered in vacuo over a glass fibre filter, and the glass fibre filter was rewashed twice with 3.5 ml of the same buffer. The particle-bound radioactivity retained on the filters was then measured.
The data in Table 1 are mean values (±asymptotic standard deviation) from 3 independent experiments in which various calcium antagonists and derivatives or precursors of calcium antagonists were used as competitors with the ^125 I-labelled 1,4-dihydropyridine ("ligand") obtained in Example 2. Guinea-pig skeletal muscle membranes were used as receptor material. The concentration of the labelled ligand was 20-30 pmole/l and the experimental temperature was 25° C. 6 to 9 different concentrations of the checked substances were used (in each case as duplicate) and the measured binding data were optimally adapted by means of a computer program (DeLean A., Munson P. J., Rodbard D. (1978). Simultaneous analysis of families of sigmoid curves: application to bioassay, radioligand assay and physiological dose-response curves. Am J. Physiol. 4 E97-102). The stereospecifity of the binding for chiral 1,4-dihydropyridines was investigated as an important criterion for the receptor binding of the ^125 I-labelled 1,4-dihydropyridine in group 1. […] The EC50 value is the concentration of the substance stimulating a semi-maximum specific binding of the ligand.

[2] = target: T2, skeletal muscle membranes (1,4-dihydropyridine receptors) (Cavia porcellus, UniProt A0A286X7I0); experiment: Saturation analysis, binding of ^125 I-labelled 1,4-dihydropyridine to skeletal muscle membranes; parameters: species or system guinea-pig; conditions: 25° C.
T2 construct: membrane fractions from guinea-pig brain, cardiac muscle and skeletal muscle; from tissue; host or cells: guinea-pig skeletal muscle membranes
Procedure: (§1) Aliquots of the obtained and ^125 I-labelled 1,4-dihydropyridine are dried in a stream of nitrogen, incubated with buffer (50 mM TRIS-HCl, pH 7.4, to which the protease inhibitor phenylmethylsulphonyl fluoride has been added (0.1 mmole/l)) and membrane fractions from guinea-pig brain, cardiac muscle and skeletal muscle (prepared as described in Drug Development 9: 63-98 (1983); Naunyn-Schmiedeberg's Arch. Pharmacol. 321: 80-83 (1983) and FEBS Lett 148: 331-337 (1982)) at 25° C. in 0.1 ml volume until equilibrium is reached, and the specific binding (defined as the difference in the binding of the ^125 I-labelled 1,4-dihydropyridine in the absence and presence of 1 μmole/l of Nimodipin) is measured by means of the filtration technique (to separate bound and free ^125 I-labelled 1,4-dihydropyridine). […] The particle-bound radioactivity retained on the filters was then measured.
(§2) The following formula was used to calculate the concentration of the free ligand: (T. a)-B, where T is the total concentration of the ligand, a is a factor describing the binding capacity of the ligand, and B is the concentration of the specifically bound ligand in equilibrium. The factor a was determined experimentally by saturating the radioactive ligand with binding sites (receptors) (described in FEBS Lett. 148, 331-337, 1982; Naunyn Schmiedeberg's Arch. Pharmacol 321, 7-10, 1982). […]

[3] = target: T3, 1,4-dihydropyridine receptors in guinea-pig brain membranes (Cavia porcellus, UniProt O35505); experiment: Saturation analysis, binding of ^125 I-labelled 1,4-dihydropyridine to brain membranes; conditions: 25° C., read-out: dissociation constant (conclusion)
T3 construct: 1,4-dihydropyridine receptors in guinea-pig brain membranes; from tissue; host or cells: guinea-pig brain membranes
Procedure: as §1, §2

[4] = Stability of the ^125 I-labelled 1,4-dihydropyridine (HPLC, thin layer chromatography); assay type: physicochemical
Procedure: The following formula was used to calculate the concentration of the free ligand: (T. a)-B, where T is the total concentration of the ligand, a is a factor describing the binding capacity of the ligand, and B is the concentration of the specifically bound ligand in equilibrium. The factor a was determined experimentally by saturating the radioactive ligand with binding sites (receptors) (described in FEBS Lett. 148, 331-337, 1982; Naunyn Schmiedeberg's Arch. Pharmacol 321, 7-10, 1982). The factor "a" was 0.5 for the asymmetric 1,4-dihydropyridine derivative, in agreement with the theoretically required capacity of the receptor (R) and (S) to differentiate enantiomers of the ^125 I-labelled 1,4-dihydropyridine (stereospecifity of the binding). The ^125 I-labelled 1,4-dihydropyridine is the racemic mixture of (R) and (S) enantiomers. A dissociation constant of 350 pmole/l (25° C.) was found for muscle membranes (not illustrated). The stability of the ^125 I-labelled 1,4-dihydropyridine was checked under the following conditions by conventional methods (HPLC, thin layeer chromatography): buffer 50 mM TRIS HCl, pH 7.4, 25° C., 4 hours; muscle membrane in buffer, 25° C., 4 hours; as well as storage in benzene or absolute ethanol at -20° C. for up to 21 days after preparation of the ligand. In no case were the radiochemical impurities greater than 10%.

[5] = read-out: IC50 (50% inhibition of the specific binding of the ligand in the radioreceptor assay), guinea-pig skeletal muscle membranes, ligand 20-30 pmole/l, 25° C., mean ± asymptotic standard deviation, 3 independent experiments
[6] = guinea-pig skeletal muscle membranes, ligand 20-30 pmole/l, 25° C., mean ± asymptotic standard deviation, 3 independent experiments

T1 sequence (A0A286X7I0 1-1867): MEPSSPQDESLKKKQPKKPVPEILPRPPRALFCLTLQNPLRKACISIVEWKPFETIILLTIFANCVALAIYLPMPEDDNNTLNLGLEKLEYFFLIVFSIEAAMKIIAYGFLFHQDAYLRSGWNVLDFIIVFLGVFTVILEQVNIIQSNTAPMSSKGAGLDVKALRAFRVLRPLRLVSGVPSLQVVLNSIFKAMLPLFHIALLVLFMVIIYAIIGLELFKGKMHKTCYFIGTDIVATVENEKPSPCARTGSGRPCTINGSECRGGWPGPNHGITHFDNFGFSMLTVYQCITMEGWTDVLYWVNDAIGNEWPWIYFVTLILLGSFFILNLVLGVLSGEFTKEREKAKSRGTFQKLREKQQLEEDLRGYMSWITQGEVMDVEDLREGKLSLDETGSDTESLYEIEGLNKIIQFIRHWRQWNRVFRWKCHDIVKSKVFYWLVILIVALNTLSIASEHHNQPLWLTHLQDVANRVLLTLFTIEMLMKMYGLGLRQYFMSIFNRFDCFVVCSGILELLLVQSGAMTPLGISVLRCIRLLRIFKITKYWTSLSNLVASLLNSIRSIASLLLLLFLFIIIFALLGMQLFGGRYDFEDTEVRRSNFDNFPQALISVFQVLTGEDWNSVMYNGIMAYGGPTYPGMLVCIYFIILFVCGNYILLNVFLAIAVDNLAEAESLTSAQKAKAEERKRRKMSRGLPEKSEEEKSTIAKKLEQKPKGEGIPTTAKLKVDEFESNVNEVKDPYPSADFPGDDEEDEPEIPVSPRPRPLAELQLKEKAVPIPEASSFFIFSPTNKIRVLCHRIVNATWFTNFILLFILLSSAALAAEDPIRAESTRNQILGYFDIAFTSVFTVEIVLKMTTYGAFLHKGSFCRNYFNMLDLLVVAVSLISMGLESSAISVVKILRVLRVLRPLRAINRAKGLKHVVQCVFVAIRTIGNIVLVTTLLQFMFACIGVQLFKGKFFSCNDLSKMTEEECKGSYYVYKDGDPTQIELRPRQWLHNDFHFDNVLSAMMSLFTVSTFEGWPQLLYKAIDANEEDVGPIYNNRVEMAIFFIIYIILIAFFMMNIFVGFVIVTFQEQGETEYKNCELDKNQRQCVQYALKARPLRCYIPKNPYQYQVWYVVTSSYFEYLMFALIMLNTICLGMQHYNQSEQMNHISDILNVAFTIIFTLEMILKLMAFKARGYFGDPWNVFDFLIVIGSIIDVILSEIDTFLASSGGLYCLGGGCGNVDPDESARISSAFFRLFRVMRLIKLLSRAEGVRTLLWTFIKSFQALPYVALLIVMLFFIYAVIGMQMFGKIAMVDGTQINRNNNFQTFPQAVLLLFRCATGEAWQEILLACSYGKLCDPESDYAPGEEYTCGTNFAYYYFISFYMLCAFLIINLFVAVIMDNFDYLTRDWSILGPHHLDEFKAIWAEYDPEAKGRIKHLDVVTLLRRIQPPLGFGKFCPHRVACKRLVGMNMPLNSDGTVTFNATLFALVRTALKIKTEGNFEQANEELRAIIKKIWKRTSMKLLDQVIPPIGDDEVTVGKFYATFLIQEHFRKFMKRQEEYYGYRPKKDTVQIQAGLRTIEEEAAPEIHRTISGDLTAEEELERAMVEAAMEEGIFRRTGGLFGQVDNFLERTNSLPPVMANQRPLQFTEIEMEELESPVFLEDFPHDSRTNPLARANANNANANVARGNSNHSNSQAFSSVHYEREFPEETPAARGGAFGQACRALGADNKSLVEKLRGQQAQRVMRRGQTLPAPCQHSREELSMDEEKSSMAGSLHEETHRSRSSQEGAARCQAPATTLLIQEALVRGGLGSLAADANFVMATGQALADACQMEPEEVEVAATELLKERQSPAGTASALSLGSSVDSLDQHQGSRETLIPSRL
T2 sequence (A0A286X7I0 1-1867): as above
T3 sequence (O35505 whole entry): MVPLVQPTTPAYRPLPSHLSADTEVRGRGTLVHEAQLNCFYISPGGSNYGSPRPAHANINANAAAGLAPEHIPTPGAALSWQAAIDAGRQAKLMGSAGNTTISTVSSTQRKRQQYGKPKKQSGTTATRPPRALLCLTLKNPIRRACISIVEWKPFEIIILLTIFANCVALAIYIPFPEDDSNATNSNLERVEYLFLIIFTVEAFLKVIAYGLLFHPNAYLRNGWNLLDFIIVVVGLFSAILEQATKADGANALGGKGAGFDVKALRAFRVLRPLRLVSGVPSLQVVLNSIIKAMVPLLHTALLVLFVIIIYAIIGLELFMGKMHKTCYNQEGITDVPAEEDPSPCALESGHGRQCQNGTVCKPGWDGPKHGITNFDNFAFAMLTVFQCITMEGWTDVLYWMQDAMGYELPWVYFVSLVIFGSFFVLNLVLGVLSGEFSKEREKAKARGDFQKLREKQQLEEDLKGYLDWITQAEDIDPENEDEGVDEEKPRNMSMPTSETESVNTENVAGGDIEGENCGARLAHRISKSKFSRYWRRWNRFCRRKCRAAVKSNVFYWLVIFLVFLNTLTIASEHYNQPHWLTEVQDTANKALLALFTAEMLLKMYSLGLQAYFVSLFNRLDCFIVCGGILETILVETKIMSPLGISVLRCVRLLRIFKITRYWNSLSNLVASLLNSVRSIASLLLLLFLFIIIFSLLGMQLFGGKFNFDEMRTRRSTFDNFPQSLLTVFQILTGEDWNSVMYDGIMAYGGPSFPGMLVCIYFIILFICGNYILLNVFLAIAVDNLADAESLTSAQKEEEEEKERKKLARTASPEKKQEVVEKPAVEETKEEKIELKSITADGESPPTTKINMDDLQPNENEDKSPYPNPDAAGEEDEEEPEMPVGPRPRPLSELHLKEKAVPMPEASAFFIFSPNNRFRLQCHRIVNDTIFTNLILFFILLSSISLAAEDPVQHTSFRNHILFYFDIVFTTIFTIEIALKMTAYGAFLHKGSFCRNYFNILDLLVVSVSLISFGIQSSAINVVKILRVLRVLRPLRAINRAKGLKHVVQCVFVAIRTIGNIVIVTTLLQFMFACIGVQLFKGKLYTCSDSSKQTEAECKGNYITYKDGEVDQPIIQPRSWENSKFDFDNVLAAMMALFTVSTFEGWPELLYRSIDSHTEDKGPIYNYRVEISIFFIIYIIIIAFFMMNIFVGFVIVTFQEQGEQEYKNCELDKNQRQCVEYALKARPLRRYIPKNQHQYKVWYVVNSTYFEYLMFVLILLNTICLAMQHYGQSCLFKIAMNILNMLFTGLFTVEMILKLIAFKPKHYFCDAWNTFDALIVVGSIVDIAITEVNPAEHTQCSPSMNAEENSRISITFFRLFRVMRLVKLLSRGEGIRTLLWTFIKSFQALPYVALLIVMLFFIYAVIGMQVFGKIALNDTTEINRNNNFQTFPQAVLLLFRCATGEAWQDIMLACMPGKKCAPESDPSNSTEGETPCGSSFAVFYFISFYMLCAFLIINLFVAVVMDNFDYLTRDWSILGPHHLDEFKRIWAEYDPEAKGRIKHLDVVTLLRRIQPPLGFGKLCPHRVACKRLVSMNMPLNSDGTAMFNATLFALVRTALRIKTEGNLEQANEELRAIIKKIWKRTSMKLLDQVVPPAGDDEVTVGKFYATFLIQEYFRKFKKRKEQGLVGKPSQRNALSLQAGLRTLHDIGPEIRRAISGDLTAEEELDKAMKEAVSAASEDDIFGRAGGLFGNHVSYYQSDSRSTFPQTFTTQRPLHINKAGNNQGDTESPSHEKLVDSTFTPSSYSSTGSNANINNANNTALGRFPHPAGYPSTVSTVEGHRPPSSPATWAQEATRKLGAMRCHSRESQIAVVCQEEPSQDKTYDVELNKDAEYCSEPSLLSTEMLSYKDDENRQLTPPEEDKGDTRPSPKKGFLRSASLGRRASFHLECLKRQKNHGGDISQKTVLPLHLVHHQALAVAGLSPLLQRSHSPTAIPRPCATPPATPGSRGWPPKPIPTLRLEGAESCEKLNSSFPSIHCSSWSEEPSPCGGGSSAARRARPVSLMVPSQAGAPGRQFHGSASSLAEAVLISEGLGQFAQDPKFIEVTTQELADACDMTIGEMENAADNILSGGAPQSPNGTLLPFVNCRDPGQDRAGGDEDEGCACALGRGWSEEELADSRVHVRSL

| Molecule | IC50 [1, 6] [nM] | also measured |
| --- | --- | --- |
| 1,4-dihydro-2,6-dimethyl-4-(2-trifluoromethylphenyl)-3,5-pyridinecarboxylic acid 2-(aminoethyl)ethyl ester [Bay K 8644] |  | IC50 [1, 5]: 37 ± 5 nM |
| COC(=O)C1=C(C)NC(C)=C(C(=O)OC(C)C)C1c1cccc2nonc12 (single isomer, unassigned; (+)) [(+)205-033, isopropyl 4-(2,1,3-benzoxadiazole-4-yl)-1,4-dihydro-2,6-dimethyl-5-methoxycarbonylpyridine-3-carboxylate] | 2 ± 0.05 |  |
| COC(=O)C1=C(C)NC(C)=C(C(=O)OC(C)C)C1c1cccc([N+](=O)[O-])c1 (single isomer, unassigned; (+)) [(+)Bay e 6927, isopropylmethyl 1,4-dihydro-2,6-dimethyl-4-(3-nitrophenyl)-3,5-pyridinedicarboxylate] | 420 ± 67 |  |
| COC(=O)C1=C(C)NC(C)=C(C(=O)OCCN(C)Cc2ccccc2)C1c1cccc([N+](=O)[O-])c1 (single isomer, unassigned; (+)) [(+)Nicardipine, 2,6-dimethyl-4-(3 nitrophenyl)-1,4-dihydropyridine-3,5-dicarboxylic acid 3-2(N-benzyl-N-methylamino)-ethylester-5-methylester] | 7 ± 0.8 |  |
| COC(=O)C1=C(C)NC(C)=C(C(=O)OC(C)C)C1c1cccc2nonc12 (single isomer, unassigned; (-)) [(-)205-034, isopropyl 4-(2,1,3-benzoxadiazole-4-yl)-1,4-dihydro-2,6-dimethyl-5-methoxycarbonylpyridine-3-carboxylate] | 198 ± 40 |  |
| COC(=O)C1=C(C)NC(C)=C(C(=O)OC(C)C)C1c1cccc([N+](=O)[O-])c1 (single isomer, unassigned; (-)) [(-)Bay e 6927, isopropylmethyl 1,4-dihydro-2,6-dimethyl-4-(3-nitrophenyl)-3,5-pyridinedicarboxylate] | 3 ± 0.04 |  |
| COC(=O)C1=C(C)NC(C)=C(C(=O)OCCN(C)Cc2ccccc2)C1c1cccc([N+](=O)[O-])c1 (single isomer, unassigned; (-)) [(-)Nicardipine, 2,6-dimethyl-4-(3 nitrophenyl)-1,4-dihydropyridine-3,5-dicarboxylic acid 3-2(N-benzyl-N-methylamino)-ethylester 5-methylester] | 42 ± 3 |  |
| COc1ccc(CCN(C)CCC[C@@](C#N)(c2cc(OC)c(OC)c(OC)c2)C(C)C)cc1OC [(-)Methoxyverapamil, Methoxyverapamil] | 21 ± 8 |  |
| CCOC(=O)C1=C(C)NC(C)=C(C(=O)O)C1c1cccc([N+](=O)[O-])c1 (stereo not drawn) [Bay M 5579] |  | IC50 [1, 5]: 1860 ± 300 nM |
| CCOC(=O)C1=C(C)NC(C)=C(C(=O)OCCNC(=O)CCc2ccc(O)c([125I])c2)C1c1ccccc1C(F)(F)F (stereo not drawn) [^125 I-labelled 1,4-dihydropyridine] |  | Kd ([2]; muscle membranes, read-out: dissociation constant (KD)): 0.35 nM; Kd ([2]; skeletal muscle membranes, read-out: dissociation constant (conclusion)): < 1 nM; Kd [3]: < 1 nM; stability (conclusion) [4]: sufficient stability; radiochemical impurities (stability) ([4]; 50 mM TRIS HCl pH 7.4, 25° C., 4 hours, muscle membrane in buffer, 25° C., storage in benzene or absolute ethanol at -20° C. up to 21 days): ≤ 10% |
| COc1ccc([C@@H]2Sc3ccccc3N(CCN(C)C)C(=O)[C@@H]2OC(C)=O)cc1 [d-cis-Diltiazem] |  | EC50 [1]: 960 ± 310 nM |
| COc1ccc([C@H]2Sc3ccccc3N(CCN(C)C)C(=O)[C@H]2OC(C)=O)cc1 [l-cis-Diltiazem] |  | IC50 [1]: 3000 ± 1600 nM |

The next lines start with results.

| IC50 [1, 6] [nM] | Molecule | also measured |
| --- | --- | --- |
| 190 ± 50 | COc1ccc(CCN(C)CCCC(C#N)(c2cc(OC)c(OC)c(OC)c2)C(C)C)cc1OC (single isomer, unassigned; (+)) [(+)Methoxyverapamil, Methoxyverapamil] |  |
| 1250 ± 180 | CCOC(=O)C1=C(C)NC2=C(C(=O)OC2)C1c1ccccc1OC(F)F (stereo not drawn) [CGP 28392] |  |
